{"source": "patent US7528106B2", "about": "“Compositions and methods for treatment of neovascular diseases” (The Scripps Research Institute, priority 2004, dated 2009)", "tested_on": "deep retinal vascular network formation in neonatal Balb/C mice", "experiment": "Neonatal mouse retinal angiogenesis model", "assay_type": "in vivo", "source_text": "Description of the Model. Immediately after birth (postnatal day zero; “P0”), retinal vasculature is virtually absent in the mouse. By four weeks after birth (P28) the retina has attained an adult pattern of retinal vessels coincident with the onset of vision. Physiological neovascularization of the retina occurs during this period via a stereotypical, biphasic developmental pattern of angiogenesis. During the primary phase of retinal vascular development, spoke-like peripapillary vessels grow radially from the central retinal artery and vein, becoming progressively interconnected by a capillary plexus that forms between them. This “inner retinal plexus” grows in area, volume and complexity, centrifugally, as a monolayer within the nerve fiber layer during the first seven to ten days following birth.\nThe second phase of retinal vessel formation begins between postnatal days 7 (P7) and 10 (P10) when collateral branches sprout from capillaries of the superficial plexus and penetrate into the retina where their tips branch and anastamose laterally to form a planar “deep vascular plexus”. While the deep vascular plexus is in place by P14, it undergoes extensive remodeling from P14 to P21. It is of interest to note that the formation of these vascular networks in the neonatal mouse are strikingly similar to the events occurring in the third trimester human fetus.\nAdvantages and Quantification of the Model. The reproducibility of the murine retinal development process and its easy accessibility in neonatal animals provide an opportunity to assess the efficacy of antiangiogenic compounds in a physiologically relevant model of angiogenesis. Additional advantages of the neonatal mouse model are the ability to qualitatively and quantitatively evaluate the angiostatic effect of putative antagonists of angiogenesis. Angiostatic activity was evaluated based upon the degree of angiogenesis in the deep, outer retinal vascular layer (secondary layer) that develops between P8 and P12. The appearance of the inner blood vessel network (primary layer) was evaluated for normal development and signs of toxicity.\nPreparation of Compositions. Peptidomimetic integrin signaling inhibitor Compound (1) is solubilized in PBS at a concentration of about 20 mg/ml in PBS (1× concentration). T2-TrpRS is solubilized in PBS at a concentration of about 0.5 mg/ml (1× concentration). VEGF aptamer (pegaptanib sodium; Compound (2)) is solubilized in PBS at a concentration of about 2 mg/ml (1× concentration) to achieve an injection of approximately 1 μg/eye at 1× concentration. For all combination assays the compounds were prepared at 2 or 3 times the 1× concentration of each material and then combined to produce a final solution containing each individual compound at the same concentration as was used alone (e.g., 1×, 0.5×, 0.25× or 0.1×, as the case may be). For all assays, a single injection of 0.5 μl of PBS solutions of the drugs was administered intravitreally regardless of the number of compounds being injected. As used herein, the term “0.1×” refers to one tenth of the 1× concentration of a given material, “0.25×” refers to one quarter of the 1× concentration of a given material, “0.5×” refers to one half of the 1× concentration of a given material, and so forth for similar designations.\nAn in vivo angiogenesis assay in the neonatal mouse (Balb/C, The Jackson Laboratory, Bar Harbor, Me.) was used to evaluate the angiostatic activity of integrin signaling inhibitor Compound (1), T2-TrpRS, and VEGF aptamer Compound (2). Intravitreous injection and retina isolation was performed with a dissecting microscope (SMZ 645, Nikon, Japan). […] The samples (0.5 μl) were injected with a Hamilton syringe fitted with a 32-gauge needle (Hamilton Company, Reno, Nev.). The injection was made between the equator and the corneal limbus. During injection, the location of the needle tip was monitored by direct visualization to determine that it was in the vitreal cavity. […]", "key": {"[1]": {"settings": "Ex 1, 0.1× (1×=20 mg/ml), intravitreal P8, read P12"}, "[2]": {"settings": "Ex 5, 0.5× (1×=20 mg/ml), intravitreal P4, read P12"}, "[3]": {"settings": "Ex 6, 0.5× (1×=20 mg/ml), intravitreal P4, read P12"}, "[4]": {"settings": "Ex 7, 0.5× (1×=20 mg/ml), intravitreal P4, read P12"}, "[5]": {"settings": "Ex 9, 1× of each (Comp. (1) 20, Comp. (2) 2, T2-TrpRS 0.5 mg/ml), intravitreal P4, read P12"}, "[6]": {"settings": "Table 12, composite data from the Examples, 1×-2×"}, "[7]": {"settings": "Table 13A, 5-10 μg per eye, intravitreal P7, read P12"}, "[8]": {"settings": "Table 13C low dosing, 0.1x (integrin ant. 1.0 μg, VEGF apt. 0.20 μg, T2-TrpRS 0.025 μg)"}}, "note": "Values joined by “and” are separate entries in the source; they are usually repeats but may differ in a detail not shown here. Identical values can stand only once.", "data": [{"smiles": "CC(C)(C)COC(=O)N[C@@H](Cc1ccc2c(c1)NC(=O)[C@@H](CCC(=O)Nc1ncc[nH]1)O2)C(=O)[O-].[Na+]", "note": "[Compound (1)]", "values": [{"measurement": "inhibition of neovascularization", "setting": "0.1× concentrations (1 μg/eye integrin antagonist, 0.2 μg/eye VEGF aptamer, 0.025 μg/eye T2-TrpRS)", "value": "negligible"}, {"measurement": "% of eyes with 0-10% inhibition of deep vascular layer", "setting": "[1]", "value": 40, "unit": "%"}, {"measurement": "% of eyes with 10-25% inhibition of deep vascular layer", "setting": "[1]", "value": 0.5, "unit": "%"}, {"measurement": "% of eyes with 25-50% inhibition of deep vascular layer", "setting": "[1]", "value": 20, "unit": "%"}, {"measurement": "% of eyes with 50-75% inhibition of deep vascular layer", "setting": "[1]", "value": 20, "unit": "%"}, {"measurement": "% of eyes with 75-100% inhibition of deep vascular layer", "setting": "[1]", "value": 20, "unit": "%"}, {"measurement": "% of eyes with 0-10% inhibition of deep vascular layer", "setting": "[2]", "value": 50, "unit": "%"}, {"measurement": "% of eyes with 10-25% inhibition of deep vascular layer", "setting": "[2]", "value": 33.3, "unit": "%"}, {"measurement": "% of eyes with 25-50% inhibition of deep vascular layer", "setting": "[2]", "value": 16.7, "unit": "%"}, {"measurement": "% of eyes with 50-75% inhibition of deep vascular layer", "setting": "[2]", "value": 0, "unit": "%"}, {"measurement": "% of eyes with 75-100% inhibition of deep vascular layer", "setting": "[2]", "value": 0, "unit": "%"}, {"measurement": "% of eyes with 100% inhibition of deep vascular layer", "setting": "[2]", "value": 0, "unit": "%"}, {"measurement": "% of eyes with >95% inhibition of deep vascular layer", "setting": "[2]", "value": 0, "unit": "%"}, {"measurement": "% of eyes with 0-10% inhibition of deep vascular layer", "setting": "[3]", "value": 50, "unit": "%"}, {"measurement": "% of eyes with 10-25% inhibition of deep vascular layer", "setting": "[3]", "value": 12.5, "unit": "%"}, {"measurement": "% of eyes with 25-50% inhibition of deep vascular layer", "setting": "[3]", "value": 12.5, "unit": "%"}, {"measurement": "% of eyes with 50-75% inhibition of deep vascular layer", "setting": "[3]", "value": 12.5, "unit": "%"}, {"measurement": "% of eyes with 75-100% inhibition of deep vascular layer", "setting": "[3]", "value": 12.5, "unit": "%"}, {"measurement": "% of eyes with 100% inhibition of deep vascular layer", "setting": "[3]", "value": 0, "unit": "%"}, {"measurement": "% of eyes with >95% inhibition of deep vascular layer", "setting": "[3]", "value": 0, "unit": "%"}, {"measurement": "% of eyes with 0-10% inhibition of deep vascular layer", "setting": "[4]", "value": 12.5, "unit": "%"}, {"measurement": "% of eyes with 10-25% inhibition of deep vascular layer", "setting": "[4]", "value": 25, "unit": "%"}, {"measurement": "% of eyes with 25-50% inhibition of deep vascular layer", "setting": "[4]", "value": 12.5, "unit": "%"}, {"measurement": "% of eyes with 50-75% inhibition of deep vascular layer", "setting": "[4]", "value": 12.5, "unit": "%"}, {"measurement": "% of eyes with 75-100% inhibition of deep vascular layer", "setting": "[4]", "value": 37.5, "unit": "%"}, {"measurement": "% of eyes with 100% inhibition of deep vascular layer", "setting": "[4]", "value": 0, "unit": "%"}, {"measurement": "% of eyes with >95% inhibition of deep vascular layer", "setting": "[4]", "value": 0, "unit": "%"}, {"measurement": "% of eyes with 0-10% inhibition of deep vascular layer", "setting": "[5]", "value": 25, "unit": "%"}, {"measurement": "% of eyes with 10-25% inhibition of deep vascular layer", "setting": "[5]", "value": 12.5, "unit": "%"}, {"measurement": "% of eyes with 25-50% inhibition of deep vascular layer", "setting": "[5]", "value": 12.5, "unit": "%"}, {"measurement": "% of eyes with 50-75% inhibition of deep vascular layer", "setting": "[5]", "value": 37.5, "unit": "%"}, {"measurement": "% of eyes with 75-100% inhibition of deep vascular layer", "setting": "[5]", "value": 12.5, "unit": "%"}, {"measurement": "% of eyes with 100% inhibition of deep vascular layer", "setting": "[5]", "value": 0, "unit": "%"}, {"measurement": "% of eyes with >95% inhibition of deep vascular layer", "setting": "[5]", "value": 0, "unit": "%"}, {"measurement": "% of mice with 0-10% inhibition of deep vascular layer", "setting": "[6]", "value": 33.3, "unit": "%"}, {"measurement": "% of mice with 10-25% inhibition of deep vascular layer", "setting": "[6]", "value": 20, "unit": "%"}, {"measurement": "% of mice with 25-50% inhibition of deep vascular layer", "setting": "[6]", "value": 13.3, "unit": "%"}, {"measurement": "% of mice with 50-75% inhibition of deep vascular layer", "setting": "[6]", "value": 16.7, "unit": "%"}, {"measurement": "% of mice with 75-100% inhibition of deep vascular layer", "setting": "[6]", "value": 16.7, "unit": "%"}, {"measurement": "% of mice with 100% inhibition of deep vascular layer", "setting": "[6]", "value": 0, "unit": "%"}, {"measurement": "% of mice with >95% inhibition of deep vascular layer", "setting": "[6]", "value": 0, "unit": "%"}, {"measurement": "Percentage of retinas with 0-10% neovascular inhibition", "setting": "[7]", "value": 33.3, "unit": "%"}, {"measurement": "Percentage of retinas with 10-25% neovascular inhibition", "setting": "[7]", "value": 20.0, "unit": "%"}, {"measurement": "Percentage of retinas with 25-50% neovascular inhibition", "setting": "[7]", "value": 13.3, "unit": "%"}, {"measurement": "Percentage of retinas with 50-75% neovascular inhibition", "setting": "[7]", "value": 16.7, "unit": "%"}, {"measurement": "Percentage of retinas with 100% neovascular inhibition", "setting": "[7]", "value": 0.0, "unit": "%"}, {"measurement": "Percentage of retinas with >75% neovascular inhibition", "setting": "[7]", "value": 16.7, "unit": "%"}, {"measurement": "Percentage of retinas with >90% neovascular inhibition", "setting": "[7]", "value": 0.0, "unit": "%"}, {"measurement": "Percentage of retinas with 0-10% neovascular inhibition", "setting": "[8]", "value": 90, "unit": "%"}, {"measurement": "Percentage of retinas with 10-25% neovascular inhibition", "setting": "[8]", "value": 10, "unit": "%"}, {"measurement": "Percentage of retinas with 25-50% neovascular inhibition", "setting": "[8]", "value": 0, "unit": "%"}, {"measurement": "Percentage of retinas with 50-75% neovascular inhibition", "setting": "[8]", "value": 0, "unit": "%"}, {"measurement": "Percentage of retinas with 100% neovascular inhibition", "setting": "[8]", "value": 0, "unit": "%"}, {"measurement": "Percentage of retinas with >75% neovascular inhibition", "setting": "[8]", "value": 0, "unit": "%"}, {"measurement": "Percentage of retinas with >90% neovascular inhibition", "setting": "[8]", "value": 0, "unit": "%"}, {"measurement": "optimal effective dose", "setting": "dosing experiments, bell-shaped efficacy curve, listed as integrin antagonist", "value": "5-10 μg per eye and 10-20 nmoles per eye"}, {"measurement": "retinas that exhibited over 75% inhibition", "setting": "monotherapy at optimal dose", "value": 17, "unit": "%"}, {"measurement": "retinas unaffected by injection", "setting": "monotherapy at the maximum individual dose", "value": "around 35%"}]}]}
